These results are taken from patent US10077261B2, “Imidazolin-5-one derivative useful as FASN inhibitors for the treatment of cancer” (Janssen Pharmaceutica NV, priority 2012, dated 2018).

Assay [1] has as its system LNCaP-Vancouver prostate cells. As to the kind of experiment: In vitro LNCaP Vancouver prostate cell proliferation assay in lipid reduced medium. The following applies: read-out: pIC50 LNCaP_Vancouver prostate cell (converted). Format: cell-based.
For assay [2], the system named is A2780 ovarian cells. As to the kind of experiment: A2780 ovarian cell proliferation assay in lipid reduced medium, with palmitate (MTT). It counts as cell-based. The following applies: Homo sapiens, A2780, 96 h; read-out: pIC50 A2780 Ovarian Cell, With Palmitate (converted). A digest of the protocol:
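In this palmitate-supplemented format, compound dilutions (30 μM down to 0.01 μM) are added to cells in lipid-reduced serum with 25 μM palmitate, 0.2% fatty-acid-free BSA and 0.25% ethanol. After four days (96 h) MTT absorbance at 544 nm is recorded and fitted by minimum sum of squares.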

Assay [3] deals with PC-3M-Luc-C6 prostate cells. Put plainly: In vitro PC-3M-Luc-C6 prostate cell proliferation assay in lipid reduced medium. Format: cell-based. The following applies: 96 h, read-out: pIC50 PC-3M-Luc-C6 prostate cell (converted). Here is the method: PC-3M-Luc-C6 prostate cells were obtained from Xenogen Corporation. Cells were maintained in MEM supplemented with 10% Fetal Calf Serum (FCS, Hyclone), 2 mM glutamine, 1 mM sodium pyruvate, 1% BME vitamins (available from for example, Sigma Aldrich), 0.1 mM non Essential Amino Acid and 50 μg/ml Gentamicin. The cells were passaged twice a week.
The next day 10 μl test compound/DMSO diluted in medium was added (3E-5M, 1E-5M, 3E-6M, 1E-6M, 3E-7M, 1E-7M, 3E-8M, 1E-8M final concentration). Compounds were tested in duplicate. After 96 h incubation at 37° C., 5% CO2 25 μl ATP-glow mix was added. The plate was incubated for 30 min at 37° C. and luminescence was measured with the Envision.
Analysis: Determination of pIC50 Values
pIC50 values were calculated as follows.
where mLC and mHC are the means of the low control wells and high control wells on the plate, after manual exclusion of outliers. The relation between the % Controlmin values and concentration was fitted to a 4-parameter logistic curve using a non-linear least squares regression method to determine the pIC50 value. Outlying data points were excluded manually to get a correct fit. The pIC50 corresponds to −log 10(IC50), if the IC50 is expressed in molar units (http://www.ncbi.nlm.nih.gov/books/NBK91994). The IC50 parameter was always determined by non-linear regression, but one or more of the other parameters may have been held fixed on a relevant input value, such as 0 for the bottom values.

For assay [4], the system named is A2780 ovarian cells. Put plainly: A2780 ovarian cell proliferation assay in lipid reduced medium, without palmitate (MTT). Format: cell-based. The following applies: Homo sapiens, A2780, 96 h; read-out: pIC50 A2780 Ovarian Cell, Without Palmitate (converted).
Assay [5] concerns the target T1, hFASN enzyme (full length) (Homo sapiens, UniProt P49327).
T1 construct: 10 μL hFASN enzyme (full length, 300 ng, purified in house); made in house
Put plainly: Fatty Acid Synthase (FASN) inhibition scintillation proximity assay. It counts as biochemical. The following applies: read-out: Human FASN % inhibition @ 10 μM, 10 μM test compound. The method in brief: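 Scintillation proximity format: in-house full-length enzyme, 300 ng per well, pH 7.5 phosphate/DTT buffer, ³H-acetyl-CoA and malonyl-CoA. Emission counted on LEADseeker at 610 nm at least 24 h after stopping.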

T1 sequence (P49327 whole entry): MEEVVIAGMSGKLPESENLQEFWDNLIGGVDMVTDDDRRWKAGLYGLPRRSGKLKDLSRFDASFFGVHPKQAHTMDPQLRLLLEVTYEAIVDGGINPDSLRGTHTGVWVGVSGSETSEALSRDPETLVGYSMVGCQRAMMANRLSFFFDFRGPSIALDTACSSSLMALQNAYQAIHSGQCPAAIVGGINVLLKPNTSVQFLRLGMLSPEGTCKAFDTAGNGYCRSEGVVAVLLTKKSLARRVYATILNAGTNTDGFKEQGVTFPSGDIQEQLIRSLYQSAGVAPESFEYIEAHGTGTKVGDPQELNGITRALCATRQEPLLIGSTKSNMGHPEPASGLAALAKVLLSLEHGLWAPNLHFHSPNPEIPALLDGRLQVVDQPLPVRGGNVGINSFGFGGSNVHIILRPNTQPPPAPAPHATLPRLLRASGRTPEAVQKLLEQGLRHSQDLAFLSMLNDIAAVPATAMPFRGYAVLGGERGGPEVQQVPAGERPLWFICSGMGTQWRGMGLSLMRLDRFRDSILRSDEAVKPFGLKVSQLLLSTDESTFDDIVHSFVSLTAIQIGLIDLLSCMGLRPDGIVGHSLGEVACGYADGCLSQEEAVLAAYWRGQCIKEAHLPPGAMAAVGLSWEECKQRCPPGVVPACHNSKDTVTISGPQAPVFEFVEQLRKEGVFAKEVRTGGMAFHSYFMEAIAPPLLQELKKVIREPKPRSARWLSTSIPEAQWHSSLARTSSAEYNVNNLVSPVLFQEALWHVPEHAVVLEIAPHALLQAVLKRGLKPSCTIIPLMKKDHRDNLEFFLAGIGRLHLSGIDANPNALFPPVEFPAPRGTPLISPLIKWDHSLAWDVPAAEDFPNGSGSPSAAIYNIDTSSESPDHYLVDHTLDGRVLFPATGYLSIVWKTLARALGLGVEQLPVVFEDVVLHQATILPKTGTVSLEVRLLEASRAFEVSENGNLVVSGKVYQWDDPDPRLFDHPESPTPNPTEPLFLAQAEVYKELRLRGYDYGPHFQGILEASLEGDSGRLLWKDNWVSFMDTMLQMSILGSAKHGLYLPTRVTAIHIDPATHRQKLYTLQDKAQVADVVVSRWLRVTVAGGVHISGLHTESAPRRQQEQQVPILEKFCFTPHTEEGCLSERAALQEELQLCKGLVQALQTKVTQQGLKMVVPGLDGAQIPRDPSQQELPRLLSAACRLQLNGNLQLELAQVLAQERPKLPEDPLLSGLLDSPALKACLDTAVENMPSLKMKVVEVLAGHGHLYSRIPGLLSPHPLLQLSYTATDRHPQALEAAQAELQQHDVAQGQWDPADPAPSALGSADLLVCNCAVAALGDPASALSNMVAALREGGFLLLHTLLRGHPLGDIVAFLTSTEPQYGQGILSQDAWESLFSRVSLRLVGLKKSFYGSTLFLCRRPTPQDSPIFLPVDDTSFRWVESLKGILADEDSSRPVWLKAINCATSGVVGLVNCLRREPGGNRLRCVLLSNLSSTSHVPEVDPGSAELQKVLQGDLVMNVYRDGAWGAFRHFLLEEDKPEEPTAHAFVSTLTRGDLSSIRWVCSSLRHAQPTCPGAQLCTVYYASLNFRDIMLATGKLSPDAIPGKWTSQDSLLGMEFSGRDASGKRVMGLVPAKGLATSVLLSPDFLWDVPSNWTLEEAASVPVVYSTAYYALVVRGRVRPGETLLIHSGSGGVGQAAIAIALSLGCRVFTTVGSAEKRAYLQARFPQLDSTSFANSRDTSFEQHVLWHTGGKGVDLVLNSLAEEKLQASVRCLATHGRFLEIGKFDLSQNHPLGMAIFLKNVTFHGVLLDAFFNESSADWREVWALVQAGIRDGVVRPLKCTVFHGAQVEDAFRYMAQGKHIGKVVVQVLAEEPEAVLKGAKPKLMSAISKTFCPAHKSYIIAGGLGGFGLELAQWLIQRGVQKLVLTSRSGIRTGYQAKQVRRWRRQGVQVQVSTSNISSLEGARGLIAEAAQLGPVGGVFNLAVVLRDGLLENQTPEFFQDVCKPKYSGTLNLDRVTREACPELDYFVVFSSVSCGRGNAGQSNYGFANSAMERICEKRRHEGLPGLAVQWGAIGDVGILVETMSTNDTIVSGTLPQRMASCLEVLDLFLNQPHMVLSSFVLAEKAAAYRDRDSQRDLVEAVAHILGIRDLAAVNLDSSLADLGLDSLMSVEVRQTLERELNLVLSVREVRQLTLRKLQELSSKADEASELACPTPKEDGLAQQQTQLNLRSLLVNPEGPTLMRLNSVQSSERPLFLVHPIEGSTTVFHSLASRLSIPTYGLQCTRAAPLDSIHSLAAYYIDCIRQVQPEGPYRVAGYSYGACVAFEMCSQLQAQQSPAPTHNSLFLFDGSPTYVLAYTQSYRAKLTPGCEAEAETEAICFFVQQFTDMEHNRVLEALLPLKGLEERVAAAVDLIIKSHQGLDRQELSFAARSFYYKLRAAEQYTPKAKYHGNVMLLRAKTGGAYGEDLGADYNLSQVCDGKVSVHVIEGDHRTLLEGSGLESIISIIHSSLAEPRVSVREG

`Cn1ncc2cc(-c3ccc(C4=NC5(CC5)C(=O)N4CC4CN(C(=O)C5CC5)C4)cc3)ccc21` [compound 39, 6-{[1-(Cyclopropylcarbonyl)azetidin-3-yl]methyl}-5-[4-(1-methyl-1H-indazol-5-yl)phenyl]-4,6-diazaspiro[2.4]hept-4-en-7-one]: the IC50 in assay [1] is 1.05 µM; in assay [2], > 10 µM; in assay [3], 0.151 µM; in assay [4], 0.331 µM.
Taken in the same sequence, the figures for `O=C(C1CC1)N1CC[C@@H](CN2C(=O)C3(CC3)N=C2c2ccc(-c3nc4ccccc4s3)cc2F)C1` [compound 252, (R)-5-(4-(benzo[d]thiazol-2-yl)-2-fluorophenyl)-6-((1-(cyclopropanecarbonyl)pyrrolidin-3-yl)methyl)-4,6-diazaspiro[2.4]hept-4-en-7-one] were 0.251 µM, > 10 µM, 0.0562 µM and ~0.0776 µM.
Consider `Cc1cc(-c2ccc3c(cnn3C)c2)ccc1C1=NC2(CC2)C(=O)N1C[C@@H]1CCN(C(=O)C2CC2)C1` [compound 262, (R)-6-((1-(cyclopropanecarbonyl)pyrrolidin-3-yl)methyl)-5-(2-methyl-4-(1-methyl-1H-indazol-5-yl)phenyl)-4,6-diazaspiro[2.4]hept-4-en-7-one], for which the IC50 was 0.295 µM in assay [1], 6.03 µM in assay [2], ~0.117 µM in assay [3] and 0.0776 µM in assay [4].
The matching figures for `O=C(C1CC1)N1CC[C@@H](CN2C(=O)C3(CC3)N=C2c2ccc(-c3ccc4[nH]ncc4c3)cc2)C1` [compound 297, (R)-5-(4-(1H-indazol-5-yl)phenyl)-6-((1-(cyclopropanecarbonyl)pyrrolidin-3-yl)methyl)-4,6-diazaspiro[2.4]hept-4-en-7-one]: 0.646 µM, > 10 µM, ~0.0302 µM and 0.0251 µM.
In the case of `O=C(C1CC1)N1CC[C@@H](CN2C(=O)C3(CC3)N=C2c2ccc(-c3c[nH]c4ccccc34)cc2)C1` [compound 314, (R)-5-(4-(1H-indol-3-yl)phenyl)-6-((1-(cyclopropanecarbonyl)pyrrolidin-3-yl)methyl)-4,6-diazaspiro[2.4]hept-4-en-7-one], the IC50 in assay [1] was 0.309 µM; in assay [3], 0.0575 µM.
For `Cn1cnc2cc(-c3ccc(C4=NC5(CC5)C(=O)N4CC4CN(C(=O)C5CC5)C4)cc3)ccc21` [compound 343, 6-((1-(cyclopropanecarbonyl)azetidin-3-yl)mehtyl)-5-(4-(1-methyl-1H-benzo[d]imidazol-5-yl)phenyl)-4,6-diazaspiro[2.4]hept-4-en-7-one], the IC50 in assay [1] was 0.24 µM; in assay [3], 0.0813 µM. In addition, the inhibition at 10 µM in assay [5] came out at 98%.
The matching figures for `O=C(C1CC1)N1CC(CN2C(=O)C3(CC3)N=C2c2ccc(-c3ccc4ccccc4n3)cc2)C1` [compound 345, 6-((1-(cyclopropanecarbonyl)azetidin-3-yl)methyl)-5-(4-(quinolin-2-yl)phenyl)-4,6-diazaspiro[2.4]hept-4-en-7-one]: 1.2 µM, 0.562 µM and 99%.
On to `O=C(C1CC1)N1CC[C@@H](CN2C(=O)C3(CC3)N=C2c2ccc(-c3nc4ccccc4[nH]3)cc2)C1` [compound 497, 5-[4-(1H-Benzimidazol-2-yl)phenyl]-6-{[(3R)-1-(cyclopropylcarbonyl)pyrrolidin-3-yl]methyl}-4,6-diazaspiro[2.4]hept-4-en-7-one], for which the IC50 in assay [1] was 5.37 µM; in assay [3], 0.479 µM.
In the case of `COC(=O)N1CC2(C1)N=C(c1ccc(-c3ccc4c(cnn4C)c3)cc1)N(C[C@@H]1CCN(C(=O)C3CC3)C1)C2=O` [compound 737, Methyl 7-{[(3R)-1-(cyclopropylcarbonyl)pyrrolidin-3-yl]methyl}-6-[4-(1-methyl-1H-indazol-5-yl)phenyl]-8-oxo-2,5,7-triazaspiro[3.4]oct-5-ene-2-carboxylate], the values for the IC50 in assay [1] and in assay [3] were ~3.72 µM and 0.708 µM, respectively.
